# Results taken from patent US20250188032A1, “NITROGEN-CONTAINING HETEROCYCLIC COMPOUNDS AND USES THEREOF” (BNH RESEARCH CO., LTD., priority 2022, published 2025).
# Tested on: 293T cells
# Experiment: Cytotoxicity test (CCK-8 cell viability) in 293T cells
# Format: cell-based, human
# Conditions: 24 hours co-incubation, 293T cell line, % of control
# Method: Human undifferentiated neuroblastoma cell line SH-SY5Y and human embryonic kidney cell line (HEK)-293T were purchased from Korean Cell Line Bank (Korea) and Takara (Japan), respectively. Cells were grown in HyClone Minimal Essential Medium (MEM) and Dulbecco's Modified Eagle Medium (DMEM), respectively, supplemented with 10% (v/v) fetal bovine serum (FBS), penicillin (100 U/mL), and streptomycin ([…]). Cells were maintained in a humidified atmosphere of 95% air and 5% CO2 at 37° C. Cells were passaged 10 times at maximum. Cells were dissociated using 0.05% trypsin-EDTA solution and the cells were seeded in new culture dishes for maintenance.
# To examine the cytotoxicity of compounds described herein in human cell lines, SH-SY5Y and 293T cells were used. Approximately 8,000 cells (for 293T) and 15,000 cells (for SH-SY5Y) were plated per well of a 96-well plate (SPL Life Sciences Co., Ltd., Pocheon, Korea). After incubating at 37° C. for 24 hours in a humidified atmosphere containing 5% CO2, the culture medium was replaced by a series of concentrations of test compounds diluted in the corresponding culture medium. The time of co-incubation was 24 hours and six replicates were made for each measurement. Finally, 10 μL of CCK-8 reagent (Dojindo Laboratories, Rockville, MD) was added to each well, and after incubation at 37° C. for 3 minutes, the OD at 450 nm was measured using a multifunction microplate reader (Tecan Infinite M200 Pro). These measurements were compared to that of a control and expressed as a percentage of the control to calculate cell viability. The IC50 value was calculated using SPSS software. To do this, the absorbance of the blank wells with only growth medium is subtracted from the values or the wells with cells. The readout value of background (vehicle) was set as a 100% viability, and then the percent viability for each test solution was calculated.
# Cell viability (%)=[(As-Ab)/(Ac-Ab)]×100
# The data was presented as the mean value and standard error of the mean (S.E.M.). Statistical analysis was performed with the one-way ANOVA with Tukey's post hoc test (GraphPad Prism 5 software package, version 5.02, GraphPad Software Inc. USA). Significance was accepted at p<0.05.
SMILES,Cell viability test results (CCK) 10 uM [%<],Cell viability test results (CCK) 100 uM [%<]
"C[C@H]1CC[C@@H](C(=O)O)CN1C(=O)Cc1ccc(N(C)C)cc1 [BnH12076, (3R,6S)-1-(2-(4-(dimethylamino)phenyl)acetyl)-6-methylpiperidine-3-carboxylic acid]",95,95
"C[C@H]1CC[C@@H](C(=O)O)CN1C(=O)Cc1cncnc1 [BnH12040, (3R,6S)-6-methyl-1-(2-(pyrimidin-5-yl)acetyl)piperidine-3-carboxylic acid]",85,80
"C[C@H]1CC[C@@H](C(=O)O)CN1C(=O)Cc1ccc(Br)cc1 [BnH12032, (3R,6S)-1-(2-(4-bromophenyl)acetyl)-6-methylpiperidine-3-carboxylic acid]",99,95
"C[C@H]1CC[C@@H](C(=O)O)CN1C(=O)Cc1cccc(Cl)c1 [BnH12026, (3R,6S)-1-(2-(3-chlorophenyl)acetyl)-6-methylpiperidine-3-carboxylic acid]",99,99
"C[C@H]1CC[C@@H](C(=O)O)CN1C(=O)Cc1ccco1 [BnH12035, (3R,6S)-1-(2-(furan-2-yl)acetyl)-6-methylpiperidine-3-carboxylic acid]",90,85
"C[C@H]1CC[C@@H](C(=O)[O-])CN1C(=O)Cc1ccncc1.[Na+] [BnH12033, Sodium (3R,6S)-6-methyl-1-(2-(pyridin-4-yl)acetyl)piperidine-3-carboxylate]",90,65
"Cc1ccc(CC(=O)N2C[C@H](C(=O)O)CC[C@@H]2C)cc1 [BnH12024, (3R,6S)-6-methyl-1-(2-(p-tolyl)acetyl)piperidine-3-carboxylic acid]",99,99
"C[C@H]1CC[C@@H](C(N)=O)CN1C(=O)Cc1ccc(F)cc1Cl [BnH12022, (3R,6S)-1-(2-(2-chloro-4-fluorophenyl)acetyl)-6-methylpiperidine-3-carboxamide]",99,99
"C[C@@H]1CC[C@H](C(=O)O)CN1C(=O)Cc1ccccc1 [BnH12062, (3S,6R)-6-methyl-1-(2-phenylacetyl)piperidine-3-carboxylic acid]",85,75
"COc1ccc(CC(=O)N2C[C@H](C(=O)O)CC[C@@H]2C)cn1 [BnH12075, (3R,6S)-1-(2-(6-methoxypyridin-3-yl)acetyl)-6-methylpiperidine-3-carboxylic acid]",99,99
"Cc1cccc(CC(=O)N2C[C@H](C(=O)O)CC[C@@H]2C)c1 [BnH12030, (3R,6S)-6-methyl-1-(2-(m-tolyl)acetyl)piperidine-3-carboxylic acid]",95,85
"C[C@H]1CC[C@@H](C(=O)O)CN1C(=O)Cc1ccc(Cl)c(Cl)c1 [BnH12028, (3R,6S)-1-(2-(3,4-dichlorophenyl)acetyl)-6-methylpiperidine-3-carboxylic acid]",90,80
"CCC(=O)N1C[C@H](C(=O)O)CC[C@@H]1C [BnH12008, (3R,6S)-6-methyl-1-propionylpiperidine-3-carboxylic acid]",95,90
"C[C@H]1CC[C@@H](C(=O)O)CN1C(=O)Cc1ccc(Cl)cc1 [BnH12023, (3R,6S)-1-(2-(4-chlorophenyl)acetyl)-6-methylpiperidine-3-carboxylic acid]",95,80
"O=C(NO)[C@@H]1CCCN1C(=O)c1ccccc1 [BnH12019, (S)-1-Benzoyl-N-hydroxypyrrolidine-2-carboxamide]",99,90
